Data reported in patent publication US20250388544A1, “HETEROAROMATIC INHIBITORS OF ASTACIN PROTEINASES” (VIVORYON THERAPEUTICS N.V., priority 2019, published 2025).

Experiments:
Assay type in all cases: biochemical
[1] = target: T1, hMeprin α (Homo sapiens, UniProt Q16819); experiment: Enzymatic assay, quenched peptide substrate cleavage, method A; details: geometric mean (geometric SD factor in parentheses), read-out: Meprin alpha IC50
T1 sequence (Q16819 66-746): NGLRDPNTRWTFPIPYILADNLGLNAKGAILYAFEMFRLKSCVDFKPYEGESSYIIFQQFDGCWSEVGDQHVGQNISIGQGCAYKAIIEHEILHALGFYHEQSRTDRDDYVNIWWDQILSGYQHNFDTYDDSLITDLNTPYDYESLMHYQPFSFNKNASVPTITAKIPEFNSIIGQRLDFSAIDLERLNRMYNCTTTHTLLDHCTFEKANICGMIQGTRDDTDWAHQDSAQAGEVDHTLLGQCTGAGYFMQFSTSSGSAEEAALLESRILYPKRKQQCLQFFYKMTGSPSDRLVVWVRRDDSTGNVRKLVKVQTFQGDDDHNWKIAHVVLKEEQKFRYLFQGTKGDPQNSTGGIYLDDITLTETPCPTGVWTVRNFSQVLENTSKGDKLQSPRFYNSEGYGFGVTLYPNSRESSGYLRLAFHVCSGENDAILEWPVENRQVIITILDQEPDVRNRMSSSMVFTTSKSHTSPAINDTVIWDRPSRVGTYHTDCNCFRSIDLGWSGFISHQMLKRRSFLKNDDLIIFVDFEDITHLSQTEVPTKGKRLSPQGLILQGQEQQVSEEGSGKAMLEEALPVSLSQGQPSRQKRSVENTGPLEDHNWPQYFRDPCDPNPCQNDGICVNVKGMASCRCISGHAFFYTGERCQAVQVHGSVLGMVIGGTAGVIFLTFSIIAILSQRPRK
Method: (§1) The determination of enzymatic activity was based on the cleavage of internally quenched peptide substrates. A typical assay of 250 μl total volume measured in black 96 well plates consisted of 100 μl buffer, 50 μl enzyme at a final concentration of 5e-8 M to 2e-10 M, 50 μl substrate (0.15 to 80 μM, in buffer, 0.5% DMSO) and 50 μl inhibitor solution (in buffer, 1% DMSO). In case of 125 μl assay volume (black 96 half area well plates) all volumes were cut in half. Enzymatic activity of ADAMs was measured in 384 well plates with 60 μl total assay volume consisting of 20 μl inhibitor, 20 μl buffer, 10 μl enzyme and 10 μl substrate.
(§2) Based on method B Ki^(app) values were determined using Morrison's equation. All measurements were performed using a fluorescence plate reader (FLUOSTAR OPTIMA, BMG Labtech) at 30° C. The kinetic parameters were determined at least in duplicates on separate days. The excitation/emission wavelength was 340/420 nm. The kinetic data was evaluated using GRAFIT software (version 7.0.3, Erithacus Software).

[2] = target: T2, hMeprin β (Homo sapiens, UniProt Q16820); experiment: as above; details: geometric mean (geometric SD factor in parentheses), read-out: Meprin beta IC50
T2 sequence (Q16820 62-701): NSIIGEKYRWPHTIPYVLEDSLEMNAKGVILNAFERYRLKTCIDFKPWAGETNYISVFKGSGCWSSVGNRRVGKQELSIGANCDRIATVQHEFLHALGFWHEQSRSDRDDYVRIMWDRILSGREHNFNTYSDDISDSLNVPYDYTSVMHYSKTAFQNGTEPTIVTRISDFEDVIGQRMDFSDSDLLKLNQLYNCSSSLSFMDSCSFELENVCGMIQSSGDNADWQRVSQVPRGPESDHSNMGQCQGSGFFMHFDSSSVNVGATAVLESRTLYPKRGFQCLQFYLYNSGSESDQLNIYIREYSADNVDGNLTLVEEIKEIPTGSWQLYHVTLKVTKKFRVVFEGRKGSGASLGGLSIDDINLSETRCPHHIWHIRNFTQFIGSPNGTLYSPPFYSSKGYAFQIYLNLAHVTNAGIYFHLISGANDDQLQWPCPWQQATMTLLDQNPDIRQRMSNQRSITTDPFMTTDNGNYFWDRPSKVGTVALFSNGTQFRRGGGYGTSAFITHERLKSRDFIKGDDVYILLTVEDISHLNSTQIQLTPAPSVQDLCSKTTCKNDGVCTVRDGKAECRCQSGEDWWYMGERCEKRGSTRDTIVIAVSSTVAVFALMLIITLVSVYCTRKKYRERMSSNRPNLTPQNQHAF
Method: as §1, §2

[3] = target: T1, hMeprin α; experiment: Enzymatic assay, quenched peptide substrate cleavage, method B; details: geometric mean (geometric SD factor in parentheses); for Ki: Morrison's equation, read-out: Meprin alpha Ki(app); for IC50: read-out: Meprin alpha IC50
Method: as §1, §2

[4] = target: T2, hMeprin β; experiment: as above; details: geometric mean (geometric SD factor in parentheses); for Ki: Morrison's equation, read-out: Meprin beta Ki(app); for IC50: read-out: Meprin beta IC50
Method: as §1, §2

Question: Which results are given for O=C(Cc1c(-c2ccccc2)nnn1-c1ccccc1)NO [Example 11, 2-(3,5-Diphenyltriazol-4-yl)ethanehydroxamic acid]?
Answer: IC50 [1]: 11 nM; IC50 [2]: 1450 nM

Question: What does the source list for O=C(Cc1c(-c2ccccc2)ncn1-c1ccccc1)NO [Example 12, 2-(3,5-Diphenylimidazol-4-yl)ethanehydroxamic acid]?
Answer: IC50 [1]: 2 nM; IC50 [2]: 486 nM

Question: Which IC50 [1] does the source give for O=C(CCn1c(-c2ccccc2)nc2ccccc21)NO [Example 14, 3-(2-Phenylbenzimidazol-1-yl)propanehydroxamic acid] here?
Answer: The IC50 was 1130 nM.

Question: What about the IC50 [2] of the same molecule?
Answer: The IC50 was 28000 nM.

Question: And the Ki [3]?
Answer: The Ki was 701 nM.

Question: What about the IC50 [3] of the same molecule?
Answer: Its IC50 is 708 nM.

Question: And the Ki [4]?
Answer: Its Ki is 31700 nM.

Question: What about the IC50 [4] of the same molecule?
Answer: The IC50 was 32400 nM.

Question: How did the IC50 [1] turn out when O=C(Cn1c(-c2ccccc2)nc2cccnc21)NO [Example 23, 2-(2-Phenylimidazo[4,5-b]pyridin-3-yl)ethane-hydroxamic acid] was run?
Answer: The IC50 was 273 nM.

Question: What about the IC50 [2] of the same molecule?
Answer: The IC50 was 4560 nM.

Question: Which results are given for O=C(CCn1c(-c2ccccc2)cc2ccccc21)NO [Example 26, 3-(2-Phenylindol-1-yl)propanehydroxamic acid]?
Answer: IC50 [1]: 475 nM; IC50 [2]: 13400 nM

Question: O=C(Cc1c(-c2ccccc2)[nH]c2ccccc12)NO [Example 27, 2-(2-Phenyl-1H-indol-3-yl)ethanehydroxamic acid] was tested. Which IC50 [1] did it give?
Answer: The IC50 was 105 nM.

Question: And the IC50 [2]?
Answer: The IC50 was 1200 nM.

Question: How did the IC50 [1] turn out when O=C(Cc1c(-c2ccc(Cl)c(O)c2F)nc2ccccn12)NO [Example 28, 2-[2-(4-Chloro-2-fluoro-3-hydroxy-phenyl)imidazo-[1,2-a]pyridin-3-yl]ethanehydroxamic acid] was run?
Answer: Its IC50 is 135 nM.

Question: What about the IC50 [2] of the same molecule?
Answer: Its IC50 is 23 nM.

Question: And the Ki [3]?
Answer: Its Ki is 90 nM.

Question: And the IC50 [3]?
Answer: The IC50 was 92 nM.

Question: What about the Ki [4] of the same molecule?
Answer: The Ki was 80 nM.

Question: What about the IC50 [4] of the same molecule?
Answer: Its IC50 is 81 nM.

Question: What does the source list for O=C(CNc1c(-c2ccccc2)nc2ccccn12)NO [Example 29, 2-[(2-Phenylimidazo[1,2-a]pyridin-3-yl)amino]-ethanehydroxamic acid]?
Answer: IC50 [1]: 793 nM; IC50 [2]: 7120 nM

Question: Which results are given for O=C(CNc1c(-c2ccc(C(=O)O)cc2)nc2ccccn12)NO [Example 30, 4-[3-[[2-(Hydroxyamino)-2-oxo-ethyl]amino]-imidazo[1,2-a]pyridin-2-yl]benzoic acid]?
Answer: IC50 [1]: 2280 nM; IC50 [2]: 176 nM

Question: Which results are given for O=C(CNc1c(-c2cccc(C(=O)O)c2)nc2ccccn12)NO [Example 31, 3-[3-[[2-(Hydroxyamino)-2-oxo-ethyl]amino]-imidazo[1,2-a]pyridin-2-yl]benzoic acid]?
Answer: IC50 [1]: 693 nM; IC50 [2]: 214 nM

Question: Which IC50 [1] does the source give for O=C(CNc1c(-c2ccc3c(c2)OCCO3)nc2ccccn12)NO [Example 32, 2-[[2-(2,3-Dihydro-1,4-benzodioxin-6-yl)imidazo-[1,2-a]pyridin-3-yl]amino]ethanehydroxamic acid] here?
Answer: Its IC50 is 655 nM.

Question: What about the IC50 [2] of the same molecule?
Answer: The IC50 was 3140 nM.

Question: What does the source list for O=C(CNc1c(-c2ccccc2)nc2c(C(=O)O)cccn12)NO [Example 33, 3-[[2-(Hydroxyamino)-2-oxo-ethyl]amino]-2-phenyl-imidazo[1,2-a]pyridine-8-carboxylic acid]?
Answer: IC50 [1]: 6740 nM; IC50 [2]: 3100 nM

Question: What does the source list for O=C(Cc1c2ccccc2nn1-c1ccccc1)NO [Example 34, 2-(2-Phenylindazol-3-yl)ethanehydroxamic acid]?
Answer: IC50 [1]: 244 nM; IC50 [2]: 3370 nM

Question: Which results are given for Cn1nc(-c2ccccc2)c(CC(=O)NO)c1-c1ccccc1 [Example 35, 2-(1-Methyl-3,5-diphenyl-pyrazol-4-yl)ethanehydroxamic acid]?
Answer: IC50 [1]: 9 nM; IC50 [2]: 1220 nM

Question: Which results are given for O=C(Cc1c(-c2ccccc2)nn(-c2ccccc2)c1-c1ccccc1)NO [Example 36, 2-(1,3,5-Triphenylpyrazol-4-yl)ethanehydroxamic acid]?
Answer: IC50 [1]: 17 nM; IC50 [2]: 2380 nM

Question: Which IC50 [1] does the source give for O=C(Cc1c(-c2ccccc2)nn(-c2ccc(C(=O)O)cc2)c1-c1ccccc1)NO [Example 37, 4-[4-[2-(Hydroxyamino)-2-oxo-ethyl]-3,5-diphenyl-pyrazol-1-yl]benzoic acid] here?
Answer: Its IC50 is 21 nM.

Question: And the IC50 [2]?
Answer: The IC50 was 154 nM.

Question: Which results are given for O=C(Cc1c(-c2ccccc2)nn(-c2cccc(C(=O)O)c2)c1-c1ccccc1)NO [Example 38, 3-[4-[2-(Hydroxyamino)-2-oxo-ethyl]-3,5-diphenyl-pyrazol-1-yl]benzoic acid]?
Answer: IC50 [1]: 16 nM; IC50 [2]: 100 nM

Question: With O=C(Cc1c(-c2ccccc2)nn(Cc2ccccc2)c1-c1ccccc1)NO [Example 39, 2-(1-Benzyl-3,5-diphenyl-pyrazol-4-yl)ethanehydroxamic acid] as the molecule, how does the IC50 [1] read?
Answer: The IC50 was 2 nM.

Question: What about the IC50 [2] of the same molecule?
Answer: Its IC50 is 254 nM.
